Assay results as given in paper PMC10165273, “Itch receptor MRGPRX4 interacts with the receptor activity–modifying proteins” (The Journal of Biological Chemistry, 2023).
Where “and” joins values, the source holds several entries; their conditions need not be identical. Identical values can stand only once. Like-named read-outs stand apart in the source and are kept apart here.

How the values were obtained:
[1] = target: T1, MRGPRX4 + RAMP3 (Homo sapiens, UniProt Q96LA9); assay: BRET2 β-arrestin2 recruitment, MRGPRX4 with RAMP3; assay type: cell-based
T1 construct: expressed in transfected cells; host or cells: HEK293T
T1 sequence (Q96LA9 whole entry): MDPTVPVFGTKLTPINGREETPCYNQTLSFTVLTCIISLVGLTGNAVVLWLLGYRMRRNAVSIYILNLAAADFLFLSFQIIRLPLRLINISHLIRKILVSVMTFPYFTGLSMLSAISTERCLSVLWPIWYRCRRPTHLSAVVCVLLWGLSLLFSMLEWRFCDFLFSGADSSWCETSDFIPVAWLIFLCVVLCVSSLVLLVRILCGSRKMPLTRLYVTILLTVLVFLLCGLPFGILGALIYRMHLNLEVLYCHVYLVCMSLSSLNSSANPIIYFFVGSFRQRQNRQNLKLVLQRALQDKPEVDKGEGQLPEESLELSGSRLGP
Experimental: (§1) The method for homogenous transfection of β-Arrestin and BRET^2 assay of β-Arrestin recruitment has been described previously ([51]). […] BRET^2 measurements were taken on the BioTek Synergy NEO2 microplate reader.
(§2) The BRET ratio for each sample was determined by calculating the ratio of the light intensity emitted by the GFP10 (515 nm) (acceptor) over the light intensity emitted by the RLuc3 (395 nm) (donor). Net BRET^2 was determined by subtracting the basal BRET^2 (β-arrestin-RLuc3 only) signal from the BRET^2 signals. All BRET values were normalized to the MRGPRX4-only condition.

[2] = tested on: MRGPRX4; parameters: method as in Cao et al. [23]; settings: ref Cao et al. [23]; read-out: Ca2+ flux EC50; cited from earlier work
[3] = tested on: mock (βArr2); assay: BRET2 β-arrestin2 recruitment, mock-transfected cells; assay type: cell-based, human; settings: 100µM Ng
[4] = tested on: MRGPRX4; parameters: method as in PMID 25895059; settings: ref [10]; read-out: phosphatidylinositol hydrolysis EC50; cited from earlier work
[5] = target: T2, MRGPRX4 + RAMP2 (Homo sapiens, UniProt Q96LA9); assay: BRET2 β-arrestin2 recruitment, MRGPRX4 with RAMP2; assay type: cell-based; settings: for BRET2 ratio, time course (Figure 5e): MRGPRX4 + RAMP2 100μM Ng, listed as Ng
T2 construct: expressed in transfected cells; host or cells: HEK293T
T2 sequence (Q96LA9 whole entry): as above
Experimental: as §1
To measure the time-course of β-Arrestin2 recruitment to MRGPRX4 and CALCRL, the transfection and general procedure described above was followed, with the modification that Prolume Purple was added first, followed by addition of the appropriate agonists ([51]).
as §2

[6] = tested on: mock-transfected cells; assay: BRET2 β-arrestin recruitment time course, mock-transfected cells; assay type: cell-based, human; settings: Fig 5c, 100μM ligand, listed as Ng

In the case of CC(C)[C@H]1CC[C@H](C(=O)N[C@H](Cc2ccccc2)C(=O)O)CC1 [Nateglinide], the “normalized β-arrestin2 recruitment BRET2 signal (Figure 5f)” value ([1]; MRGPRX4 + RAMP3, 100μM Ng, listed as Ng) is given as 0.6122 and 0.604 and 0.6466 and 0.7957, the “attenuation of β-arrestin2 recruitment upon nateglinide treatment” value ([1]; RAMP3 coexpression vs MRGPRX4 alone (Fig. 5F)) is given as 34% and the EC50 [2] is given as 4.72 µM. The “β-arrestin recruitment BRET2 signal (Figure 5d)” value [3] was -0.01563, the EC50 [4] was 2.1 µM and the “BRET2 ratio, time course (Figure 5e)” value ([5]; 60 seconds) was 0.009668 and 0.00973 and 0.009697. For the same compound, the “BRET2 ratio, time course (Figure 5e)” value ([5]; 120 seconds) was 0.01023 and 0.01 and 0.01054, the “BRET2 ratio, time course (Figure 5e)” value ([5]; 180 seconds) was 0.01074 and 0.009771 and 0.01057 and the “BRET2 ratio, time course (Figure 5e)” value ([5]; 240 seconds) was 0.01008 and 0.0101 and 0.01015. For the same compound, the “BRET2 ratio, time course (Figure 5e)” value ([5]; 300 seconds) was 0.009689 and 0.009979 and 0.01017, the “BRET2 ratio, time course (Figure 5e)” value ([5]; 360 seconds) was 0.009793 and 0.009837 and 0.01091 and the “BRET2 ratio, time course (Figure 5e)” value ([5]; 420 seconds) was 0.009697 and 0.01031 and 0.01076. For the same compound, the “BRET2 ratio, time course (Figure 5e)” value ([5]; 480 seconds) was 0.00993 and 0.009604 and 0.009499, the “BRET2 ratio, time course (Figure 5e)” value ([5]; 540 seconds) was 0.00961 and 0.009808 and 0.01044 and the “BRET2 ratio, time course (Figure 5e)” value ([5]; 600 seconds) was 0.01026 and 0.01047 and 0.00952. The “BRET2 ratio, time course (Figure 5e)” value ([5]; 660 seconds) was 0.009244, the “decrease in β-arrestin2 recruitment upon nateglinide treatment” value ([5]; RAMP2 coexpression vs MRGPRX4 alone (Fig. 5F)) was 73% and the BRET2 ratio ([6]; 60 s) was 0.008415 and 0.007646 and 0.00794. The BRET2 ratio ([6]; 120 s) was 0.007842 and 0.007685 and 0.007289, the BRET2 ratio ([6]; 180 s) was 0.007259 and 0.007981 and 0.007565 and the BRET2 ratio ([6]; 240 s) was 0.007155 and 0.006788 and 0.008148. The BRET2 ratio ([6]; 300 s) was 0.007567 and 0.007447 and 0.007514, the BRET2 ratio ([6]; 360 s) was 0.008471 and 0.007058 and 0.007429 and the BRET2 ratio ([6]; 420 s) was 0.007097 and 0.007188 and 0.007508. For the same compound, the BRET2 ratio ([6]; 480 s) was 0.006826 and 0.007196 and 0.007205, the BRET2 ratio ([6]; 540 s) was 0.008083 and 0.00749 and 0.00867 and the BRET2 ratio ([6]; 600 s) was 0.007686 and 0.006192 and 0.007271. The BRET2 ratio ([6]; 660 s) was 0.006698 and 0.007765 and 0.007192, the BRET2 ratio ([6]; 720 s) was 0.00801 and 0.006623 and 0.005548 and the BRET2 ratio ([6]; 780 s) was 0.009777 and 0.007416 and 0.006284. For the same compound, the BRET2 ratio ([6]; 840 s) was 0.007062 and 0.008946 and 0.00672, the BRET2 ratio ([6]; 900 s) was 0.007894 and 0.008249 and 0.007741 and the BRET2 ratio ([6]; 960 s) was 0.008424 and 0.006304 and 0.008892. For the same compound, the BRET2 ratio ([6]; 1020 s) was 0.008684 and 0.007837 and 0.007668, the BRET2 ratio ([6]; 1080 s) was 0.008011 and 0.008281 and 0.007344 and the BRET2 ratio ([6]; 1140 s) was 0.009425 and 0.00762 and 0.007536. For the same compound, the BRET2 ratio ([6]; 1200 s) was 0.006477 and 0.008078 and 0.009426, the BRET2 ratio ([6]; 1260 s) was 0.008155 and 0.006248 and 0.008937 and the BRET2 ratio ([6]; 1320 s) was 0.008765 and 0.01027 and 0.007016. For the same compound, the BRET2 ratio ([6]; 1380 s) was 0.009766 and 0.009472 and 0.01001.
